# From ChEMBL document CHEMBL1201862, “PubChem BioAssay data set” (2004)
# Activity calls are given as the source filed them.
# Tests used:
# [1] = molecular target: DNA (cytosine-5)-methyltransferase 1 (Homo sapiens, UniProt P26358); test: inhibition of DNA methylation by DNMT1 – biochemical, fluorescent molecular beacon, confirmation (AID 602386); type: functional
# [2] = molecular target: T1, Short transient receptor potential channel 4 (Mus musculus, UniProt Q9QUQ5); test: block of DAMGO-driven TRPC4 calcium entry – cell-based, HEK293 TRPC4/mu-opioid, Fluo-4 calcium, dose response (AID 434942); type: functional;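 note: potency of inhibitors blocking the TRPC4 calcium response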
# T1 sequence (Q9QUQ5 whole entry): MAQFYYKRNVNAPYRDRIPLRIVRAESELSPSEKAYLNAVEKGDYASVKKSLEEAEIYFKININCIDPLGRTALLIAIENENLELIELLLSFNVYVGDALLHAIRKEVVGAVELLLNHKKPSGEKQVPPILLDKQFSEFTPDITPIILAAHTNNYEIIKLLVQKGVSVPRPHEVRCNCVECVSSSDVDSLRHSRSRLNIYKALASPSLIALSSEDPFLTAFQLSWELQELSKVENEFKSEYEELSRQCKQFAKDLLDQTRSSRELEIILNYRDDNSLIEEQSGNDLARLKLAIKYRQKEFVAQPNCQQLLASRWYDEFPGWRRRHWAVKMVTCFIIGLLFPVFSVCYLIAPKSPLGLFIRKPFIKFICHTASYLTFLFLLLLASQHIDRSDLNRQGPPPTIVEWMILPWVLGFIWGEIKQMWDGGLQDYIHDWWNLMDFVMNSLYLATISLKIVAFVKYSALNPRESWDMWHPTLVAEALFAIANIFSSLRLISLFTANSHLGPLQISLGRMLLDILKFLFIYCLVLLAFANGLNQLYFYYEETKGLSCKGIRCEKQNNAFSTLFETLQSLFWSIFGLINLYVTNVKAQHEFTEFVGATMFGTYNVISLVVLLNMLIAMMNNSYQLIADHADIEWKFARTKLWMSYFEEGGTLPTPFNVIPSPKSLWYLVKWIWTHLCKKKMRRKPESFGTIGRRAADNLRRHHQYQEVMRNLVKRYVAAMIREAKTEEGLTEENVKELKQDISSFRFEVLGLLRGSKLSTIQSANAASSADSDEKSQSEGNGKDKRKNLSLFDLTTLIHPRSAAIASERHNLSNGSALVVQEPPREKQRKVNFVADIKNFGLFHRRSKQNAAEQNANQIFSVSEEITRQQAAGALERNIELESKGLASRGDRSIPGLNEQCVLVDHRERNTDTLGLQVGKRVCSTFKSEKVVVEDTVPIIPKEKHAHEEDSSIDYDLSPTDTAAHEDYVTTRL
# [3] = molecular target: T1, Short transient receptor potential channel 4; test: calcium entry via TRPC4 opening agents – cell-based, HEK293 TRPC4/mu-opioid, Fluo-4 calcium, dose response (AID 434937); type: functional
# [4] = molecular target: Peroxisome proliferator-activated receptor gamma/Nuclear receptor coactivator 1 (Homo sapiens, UniProt P37231); test: (§1) TR-FRET dose response biochemical High Throughput Screening assay for agonists of the steroid receptor coactivator 1 (SRC-1) recruitment by the peroxisome proliferator-activated receptor gamma (PPAR gamma): non-selective agonists. [Related pubchem assays (depositor defined):AID1300, AID1808, AID504735, AID631]; type: protein assay
# [5] = molecular target: Peroxisome proliferator-activated receptor gamma/Nuclear receptor coactivator 3 (Homo sapiens, UniProt P37231); test: as §1, with “3 (SRC-3)” for “1 (SRC-1)”, “assays: 1301 (Confirmation screen.), 1048 (Primary screen.)]” for “assays (depositor defined):AID1300, AID1808, AID504735, AID631]”; type: functional
# [6] = molecular target: Peroxisome proliferator-activated receptor gamma/Nuclear receptor coactivator 2 (Homo sapiens, UniProt P37231); test: TR-FRET dose response biochemical High Throughput Screening assay for agonists of the steroid receptor coactivator 2 (SRC-2) recruitment by the peroxisome proliferator-activated receptor gamma (PPAR gamma): non-selective agonists. [Related pubchem assays: 1297, 1032 ]; type: functional
# [7] = viability of uninfected HEp-2 cells – cell-based, HTS, cytotoxicity control for RSV inhibitor project, dose response (AID 2410); type: functional; conditions: human respiratory syncytial virus
# [8] = molecular target: DNA dC->dU-editing enzyme APOBEC-3A (Homo sapiens, UniProt P31941); test: A3A deaminase inhibition for selectivity – biochemical, dose response (AID 504722); type: functional
# [9] = molecular target: DNA dC->dU-editing enzyme APOBEC-3G (Homo sapiens, UniProt Q9HC16); test: Dose Response confirmation of small molecule APOBEC3G DNA Deaminase Inhibitors via a fluorescence-based single-stranded DNA deaminase assay. [Related pubchem assays (depositor defined):AID493012, AID493028]; type: functional
# [10] = molecular target: Glyceraldehyde-3-phosphate dehydrogenase (Homo sapiens, UniProt P04406)
# [11] = molecular target: T2, Alkaline phosphatase, tissue-nonspecific isozyme (Homo sapiens, UniProt P05186); test: potency against alkaline phosphatase TNAP – biochemical, luminescent, dose response, SAR follow-up (AID 1056)
# T2 sequence (P05186 whole entry): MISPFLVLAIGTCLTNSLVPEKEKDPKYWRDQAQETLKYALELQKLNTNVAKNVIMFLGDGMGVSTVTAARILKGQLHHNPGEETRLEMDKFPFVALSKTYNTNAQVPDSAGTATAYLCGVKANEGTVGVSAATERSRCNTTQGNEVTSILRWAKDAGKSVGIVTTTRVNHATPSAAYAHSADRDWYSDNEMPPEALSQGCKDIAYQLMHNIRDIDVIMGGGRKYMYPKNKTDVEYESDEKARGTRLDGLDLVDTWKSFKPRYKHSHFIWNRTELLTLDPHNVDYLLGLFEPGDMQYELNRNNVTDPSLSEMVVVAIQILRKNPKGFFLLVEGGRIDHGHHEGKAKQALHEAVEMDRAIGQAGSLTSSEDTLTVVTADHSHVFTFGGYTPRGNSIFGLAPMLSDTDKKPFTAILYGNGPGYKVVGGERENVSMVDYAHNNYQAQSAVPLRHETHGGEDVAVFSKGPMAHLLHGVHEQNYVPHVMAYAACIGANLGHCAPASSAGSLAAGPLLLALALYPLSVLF
# [12] = molecular target: T3, Polyadenylate-binding protein 1 (Homo sapiens, UniProt P11940); test: MLLE binding blockers, Cy5 peptide tracer – biochemical, fluorescence polarization, Cy5-PAM2 peptide, secondary, miRNA deadenylation inhibitor project, dose response (AID 602260); type: functional; conditions: read-out: IC50_Mean
# [13] = molecular target: T3, Polyadenylate-binding protein 1; test: MLLE domain peptide-binding blockers, IC50 – biochemical, fluorescence polarization, FITC-PAM2 peptide, dose response (AID 602259); type: functional; conditions: read-out: IC50_Mean
# [14] = molecular target: T4, Kappa-type opioid receptor (Homo sapiens, UniProt P41145); type: functional
# [15] = molecular target: Beta-galactosidase (Escherichia coli, UniProt Q8VNN2); type: functional
# [16] = molecular target: T4, Kappa-type opioid receptor; type: functional; remark: listed apart in the source
# [17] = test system: H9c2; test: cells; type: functional, cell-based; conditions: Rattus norvegicus, H9c2, Myocardium;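 note: confirmatory concentration-response retest of ultra-high-throughput screening hits for modulation of myocardial damage; cell death induced by hydrogen peroxide oxidative stress; compound pretreatment for 60 min then peroxide exposure for 2 h; potency is for protecting the cells against peroxide damage rather than for killing them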
# [18] = reduction of Shn3 3'UTR-driven luciferase in osteoblasts – cell-based, Clone20 osteoblasts, firefly luciferase, cherry-picked, dose response (AID 624132); type: functional;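 note: firefly luciferase luminescence from reporter carrying the Shn3 3'UTR in osteoblasts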
# [19] = loss of viability in HepG2 cells – cell-based, CellTiter-Glo, cherry-picked, cytotoxicity control for Shn3 inhibitor project, dose response (AID 624134); type: functional
# [20] = non-specific 3'UTR reporter inhibition in Clone20-Shn3RL – cell-based, Renilla luciferase, cherry-picked, counter-screen for Shn3 inhibitor project, dose response (AID 624133); type: functional
# [21] = viability loss in CEM21 cells – cell-based, CellTiter-Glo luminescence, cherry-picked, cytotoxicity control for viral fusion inhibitor project, dose response (AID 652042); type: functional;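 note: potency for signal decrease meaning cytotoxicity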
# [22] = HIV-1 AD8 envelope cell-cell fusion blockers – cherry-pick, dose response (AID 652062); type: functional, cell-based;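 note: luciferase signal from cell-cell fusion driven by HIV-1 clade B AD8 Env; potency is for inhibitors of fusion seen as a drop in luminescence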
# [23] = molecular target: T5, Ubiquitin-conjugating enzyme E2 N (Homo sapiens, UniProt P61088); type: functional;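 note: Dose-response confirmation in a TR-FRET assay detecting UBC13-driven polyubiquitin chain formation, inhibition measured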
# T5 sequence (P61088 whole entry): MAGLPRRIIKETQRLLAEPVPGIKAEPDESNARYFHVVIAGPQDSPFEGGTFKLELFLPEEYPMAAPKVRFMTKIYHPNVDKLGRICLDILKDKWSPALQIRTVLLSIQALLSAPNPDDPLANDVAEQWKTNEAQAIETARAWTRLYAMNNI
# [24] = molecular target: Major prion protein (Homo sapiens, UniProt P04156); type: functional, cell-based
# [25] = cells
# [26] = molecular target: T6, Carboxy-terminal domain RNA polymerase II polypeptide A small phosphatase 1 (Homo sapiens, UniProt Q9GZU7); test: CTDSP1 inhibitors, concentration-response, biochemical, absorbance readout, ultra-high-throughput screen actives (AID 540297); type: functional
# T6 sequence (Q9GZU7 whole entry): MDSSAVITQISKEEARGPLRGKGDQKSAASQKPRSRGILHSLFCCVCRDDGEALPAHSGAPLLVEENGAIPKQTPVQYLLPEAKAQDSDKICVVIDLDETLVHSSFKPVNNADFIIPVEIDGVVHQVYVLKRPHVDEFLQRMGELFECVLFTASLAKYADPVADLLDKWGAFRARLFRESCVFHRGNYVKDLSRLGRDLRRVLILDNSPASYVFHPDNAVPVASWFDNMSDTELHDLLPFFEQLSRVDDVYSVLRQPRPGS
# [27] = molecular target: T7, Rac GTPase-activating protein 1 (Homo sapiens, UniProt Q9H0H5); test: blockers of MgcRacGAP-driven Rac1 GTP hydrolysis – biochemical, ADP Hunter fluorescence, primary and confirmatory, confirmation (AID 624330); type: functional
# T7 sequence (Q9H0H5 whole entry): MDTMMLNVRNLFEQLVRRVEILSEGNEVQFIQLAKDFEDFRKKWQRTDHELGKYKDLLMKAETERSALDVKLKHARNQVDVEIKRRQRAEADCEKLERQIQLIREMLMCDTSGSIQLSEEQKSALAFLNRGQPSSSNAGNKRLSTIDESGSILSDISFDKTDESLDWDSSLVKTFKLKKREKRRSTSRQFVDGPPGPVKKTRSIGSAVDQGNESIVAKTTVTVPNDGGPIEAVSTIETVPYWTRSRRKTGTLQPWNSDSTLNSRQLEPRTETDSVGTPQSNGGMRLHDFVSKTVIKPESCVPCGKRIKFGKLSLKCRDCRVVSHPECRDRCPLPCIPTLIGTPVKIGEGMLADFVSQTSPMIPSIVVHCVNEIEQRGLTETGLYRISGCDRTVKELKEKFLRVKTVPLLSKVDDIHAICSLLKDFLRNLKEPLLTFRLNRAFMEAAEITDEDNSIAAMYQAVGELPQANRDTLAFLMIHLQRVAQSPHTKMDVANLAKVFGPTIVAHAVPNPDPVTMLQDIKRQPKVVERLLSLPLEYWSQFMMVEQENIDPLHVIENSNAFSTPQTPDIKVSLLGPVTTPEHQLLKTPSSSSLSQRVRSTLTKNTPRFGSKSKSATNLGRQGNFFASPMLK
# DNA dC->dU-editing enzyme APOBEC-3G, sequence (Q9HC16 whole entry): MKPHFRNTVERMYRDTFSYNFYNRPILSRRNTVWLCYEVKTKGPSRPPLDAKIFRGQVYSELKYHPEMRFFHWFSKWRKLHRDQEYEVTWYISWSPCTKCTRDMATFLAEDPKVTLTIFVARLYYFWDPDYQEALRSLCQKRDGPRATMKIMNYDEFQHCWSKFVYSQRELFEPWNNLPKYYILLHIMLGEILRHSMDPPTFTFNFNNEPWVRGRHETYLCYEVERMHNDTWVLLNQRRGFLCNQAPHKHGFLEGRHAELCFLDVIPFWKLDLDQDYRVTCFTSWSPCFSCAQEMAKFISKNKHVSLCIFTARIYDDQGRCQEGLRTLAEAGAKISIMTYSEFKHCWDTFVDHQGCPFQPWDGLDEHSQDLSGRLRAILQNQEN
# Peroxisome proliferator-activated receptor gamma/Nuclear receptor coactivator 2, sequence (P37231 whole entry): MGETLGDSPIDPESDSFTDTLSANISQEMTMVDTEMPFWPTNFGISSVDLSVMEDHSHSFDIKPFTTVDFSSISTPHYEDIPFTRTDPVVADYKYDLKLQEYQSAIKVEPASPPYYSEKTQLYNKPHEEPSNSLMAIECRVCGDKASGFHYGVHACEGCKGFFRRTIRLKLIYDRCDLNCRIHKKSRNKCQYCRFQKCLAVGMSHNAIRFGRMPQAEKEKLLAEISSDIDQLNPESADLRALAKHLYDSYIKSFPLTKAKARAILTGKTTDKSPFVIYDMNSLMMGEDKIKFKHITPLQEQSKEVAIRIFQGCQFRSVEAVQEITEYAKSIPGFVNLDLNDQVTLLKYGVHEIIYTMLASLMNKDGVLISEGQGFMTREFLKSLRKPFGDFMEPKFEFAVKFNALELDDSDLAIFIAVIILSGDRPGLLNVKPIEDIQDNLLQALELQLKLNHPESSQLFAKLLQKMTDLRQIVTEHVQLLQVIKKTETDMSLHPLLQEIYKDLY
# Peroxisome proliferator-activated receptor gamma/Nuclear receptor coactivator 2, sequence (Q15596 whole entry, further chain): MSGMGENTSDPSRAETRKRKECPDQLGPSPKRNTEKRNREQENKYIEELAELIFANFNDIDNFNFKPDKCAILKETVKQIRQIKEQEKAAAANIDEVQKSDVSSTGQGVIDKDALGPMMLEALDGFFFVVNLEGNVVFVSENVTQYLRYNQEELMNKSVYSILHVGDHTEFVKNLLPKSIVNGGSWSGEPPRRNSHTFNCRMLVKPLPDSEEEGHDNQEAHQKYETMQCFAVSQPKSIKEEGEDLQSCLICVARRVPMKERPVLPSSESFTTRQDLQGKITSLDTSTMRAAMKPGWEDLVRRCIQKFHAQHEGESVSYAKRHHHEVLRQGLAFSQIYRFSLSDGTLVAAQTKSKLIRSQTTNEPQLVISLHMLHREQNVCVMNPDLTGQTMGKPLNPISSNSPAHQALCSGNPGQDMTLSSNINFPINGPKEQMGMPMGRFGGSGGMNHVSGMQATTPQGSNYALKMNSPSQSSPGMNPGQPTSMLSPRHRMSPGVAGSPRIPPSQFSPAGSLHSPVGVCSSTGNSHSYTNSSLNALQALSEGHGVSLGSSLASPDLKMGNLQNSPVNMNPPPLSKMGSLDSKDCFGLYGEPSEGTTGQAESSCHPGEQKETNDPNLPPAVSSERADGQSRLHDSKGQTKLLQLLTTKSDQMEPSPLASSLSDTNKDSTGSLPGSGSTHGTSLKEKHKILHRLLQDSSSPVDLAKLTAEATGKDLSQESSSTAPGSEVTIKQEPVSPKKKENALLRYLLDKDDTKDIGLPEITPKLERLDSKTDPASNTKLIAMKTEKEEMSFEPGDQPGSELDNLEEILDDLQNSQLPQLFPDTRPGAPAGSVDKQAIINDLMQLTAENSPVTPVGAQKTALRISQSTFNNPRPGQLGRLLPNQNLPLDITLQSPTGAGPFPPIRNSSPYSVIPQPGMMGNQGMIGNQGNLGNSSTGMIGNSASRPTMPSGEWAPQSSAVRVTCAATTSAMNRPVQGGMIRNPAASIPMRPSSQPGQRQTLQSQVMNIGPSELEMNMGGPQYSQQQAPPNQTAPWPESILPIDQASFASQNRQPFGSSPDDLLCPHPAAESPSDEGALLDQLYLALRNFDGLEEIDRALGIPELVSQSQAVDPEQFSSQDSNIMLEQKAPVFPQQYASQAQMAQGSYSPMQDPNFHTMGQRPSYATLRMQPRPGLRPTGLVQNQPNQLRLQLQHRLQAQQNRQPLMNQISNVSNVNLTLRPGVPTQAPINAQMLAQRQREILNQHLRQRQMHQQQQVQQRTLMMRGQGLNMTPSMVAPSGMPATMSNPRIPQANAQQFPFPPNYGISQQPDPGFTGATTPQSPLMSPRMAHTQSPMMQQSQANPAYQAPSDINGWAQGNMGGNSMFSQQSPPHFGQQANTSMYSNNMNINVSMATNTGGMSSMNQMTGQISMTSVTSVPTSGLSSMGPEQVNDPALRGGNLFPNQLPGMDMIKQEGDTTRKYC
# Peroxisome proliferator-activated receptor gamma/Nuclear receptor coactivator 3, sequence (P37231 whole entry): as the sequence (P37231 whole entry) above
# Peroxisome proliferator-activated receptor gamma/Nuclear receptor coactivator 3, sequence (Q9Y6Q9 whole entry, further chain): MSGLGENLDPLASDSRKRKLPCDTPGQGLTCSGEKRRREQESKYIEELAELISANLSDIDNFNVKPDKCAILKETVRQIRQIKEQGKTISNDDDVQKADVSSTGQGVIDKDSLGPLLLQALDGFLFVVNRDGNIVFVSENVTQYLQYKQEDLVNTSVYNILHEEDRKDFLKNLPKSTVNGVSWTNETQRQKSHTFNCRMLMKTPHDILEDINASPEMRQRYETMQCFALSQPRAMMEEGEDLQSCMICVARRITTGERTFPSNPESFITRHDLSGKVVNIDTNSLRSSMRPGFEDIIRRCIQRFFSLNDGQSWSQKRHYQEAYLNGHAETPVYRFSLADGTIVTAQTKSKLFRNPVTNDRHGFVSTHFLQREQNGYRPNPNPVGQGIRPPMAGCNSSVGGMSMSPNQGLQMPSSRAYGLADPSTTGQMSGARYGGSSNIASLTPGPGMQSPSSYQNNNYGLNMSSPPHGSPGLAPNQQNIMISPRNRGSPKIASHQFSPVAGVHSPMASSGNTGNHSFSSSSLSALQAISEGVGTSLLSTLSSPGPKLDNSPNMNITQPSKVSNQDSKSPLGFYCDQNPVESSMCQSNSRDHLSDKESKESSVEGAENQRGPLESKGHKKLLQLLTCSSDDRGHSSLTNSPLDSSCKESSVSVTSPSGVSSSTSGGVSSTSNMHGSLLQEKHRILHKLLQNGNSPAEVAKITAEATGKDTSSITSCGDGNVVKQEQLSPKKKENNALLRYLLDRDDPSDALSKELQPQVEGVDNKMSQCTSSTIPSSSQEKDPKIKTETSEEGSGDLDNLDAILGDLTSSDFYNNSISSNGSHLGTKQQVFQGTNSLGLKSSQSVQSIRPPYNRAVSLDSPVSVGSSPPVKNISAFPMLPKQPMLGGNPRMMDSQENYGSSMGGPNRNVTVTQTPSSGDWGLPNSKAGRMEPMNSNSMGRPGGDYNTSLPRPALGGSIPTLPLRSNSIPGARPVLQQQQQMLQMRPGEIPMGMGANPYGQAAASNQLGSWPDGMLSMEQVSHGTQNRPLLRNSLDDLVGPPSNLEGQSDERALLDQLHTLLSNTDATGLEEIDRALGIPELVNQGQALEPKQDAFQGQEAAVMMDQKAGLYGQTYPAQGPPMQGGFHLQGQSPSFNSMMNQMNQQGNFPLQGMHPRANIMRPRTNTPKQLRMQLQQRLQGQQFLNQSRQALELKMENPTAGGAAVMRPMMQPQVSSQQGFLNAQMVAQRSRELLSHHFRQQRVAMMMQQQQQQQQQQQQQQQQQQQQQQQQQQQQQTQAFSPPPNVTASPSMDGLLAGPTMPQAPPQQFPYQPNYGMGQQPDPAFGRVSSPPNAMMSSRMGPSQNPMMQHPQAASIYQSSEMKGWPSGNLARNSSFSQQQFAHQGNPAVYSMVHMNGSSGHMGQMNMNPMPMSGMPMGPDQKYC
# DNA dC->dU-editing enzyme APOBEC-3A, sequence (P31941 whole entry): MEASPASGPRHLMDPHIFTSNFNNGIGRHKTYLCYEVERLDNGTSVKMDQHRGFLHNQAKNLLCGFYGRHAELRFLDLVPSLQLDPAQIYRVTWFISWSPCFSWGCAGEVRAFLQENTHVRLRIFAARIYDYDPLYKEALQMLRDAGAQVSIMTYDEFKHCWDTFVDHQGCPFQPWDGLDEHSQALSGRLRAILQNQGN
# T4 sequence (P41145 whole entry): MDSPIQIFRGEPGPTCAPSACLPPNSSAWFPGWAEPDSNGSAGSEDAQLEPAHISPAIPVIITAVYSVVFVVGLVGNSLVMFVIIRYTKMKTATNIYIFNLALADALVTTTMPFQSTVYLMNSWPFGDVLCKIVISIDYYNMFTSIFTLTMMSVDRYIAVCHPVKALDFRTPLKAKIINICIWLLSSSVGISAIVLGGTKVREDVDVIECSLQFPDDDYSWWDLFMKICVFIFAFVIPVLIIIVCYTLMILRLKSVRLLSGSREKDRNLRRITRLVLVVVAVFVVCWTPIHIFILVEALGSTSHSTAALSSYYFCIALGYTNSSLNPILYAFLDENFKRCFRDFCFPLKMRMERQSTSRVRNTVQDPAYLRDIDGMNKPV
smiles,measurement,setting,value
CCOC(=O)C1CCCN(C(=O)c2cc(-c3ccco3)nc3ccccc23)C1 (stereo not given),IC50,[1],6.42 µM (active)
CC1CCCN(c2c3c(nc4ccccc24)CCCC3)C1 (stereo not given),EC50,[2],1.33 µM (active)
CC(C)c1ccc(NC(=S)N(C)CCc2ccccn2)cc1,EC50,[3],5.96 µM (active)
Cc1cc(N/N=C/c2ccccc2F)c2ccccc2n1,EC50,[2],2.66 µM (active)
COC(=O)c1sccc1-c1ccc(/C=N/OC(=O)c2ccccc2)o1,EC50,[4],12.2 µM (inactive)
same,EC50,[5],> 79.4 µM (not active)
same,EC50,[6],12.7 µM (not active)
Fc1ccc(C(c2nnnn2Cc2cccs2)N2CCN(C3CCCCC3)CC2)cc1 (stereo not given),EC50,[3],1.19 µM (active)
Cc1nn(-c2ccccc2)c(C)c1/C=N/n1c(S)nnc1-c1ccncc1,CC50,[7],> 50 µM (active)
same,IC50,[8],> 100 µM (inactive)
same,IC50,[9],2.75 µM (active)
O=C(Cc1cccs1)NCCSc1c(-c2ccc(Cl)cc2)[nH]c2ccccc12,EC50,[4],12.3 µM (inactive)
same,EC50,[5],> 2.94 µM (active)
same,EC50,[6],15.6 µM (not active)
c1cncc(-c2nnn[nH]2)c1,IC50,[10],> 100 µM (not active)
same,IC50,[11],> 100 µM (inactive)
Fc1ccc(COc2cccc(-c3nnc(S)o3)c2)cc1,EC50,[4],9.44 µM (active)
same,EC50,[5],> 79.4 µM (not active)
same,EC50,[6],8.05 µM (active)
CCOc1ccc(C(C)C)cc1S(=O)(=O)Nc1cccnc1,IC50,[10],> 100 µM (not active)
same,IC50,[11],3.52 µM (active)
O=S(=O)(c1ccc(=S)[nH]c1)N1CCOCC1,IC50,[8],> 100 µM (inactive)
same,IC50,[9],12.6 µM (active)
same,IC50,[12],> 66 µM (inactive)
same,IC50,[13],> 66 µM (inactive)
O=C(NNC(=O)C(c1ccccc1)c1ccccc1)c1ccccn1,IC50,[14],17.5 µM (active)
same,EC50,[15],> 31.5 µM (inactive)
same,IC50,[16],> 32 µM
same,IC50,[17],> 79 µM (inactive)
same,AC50,[18],2.87 µM (active)
same,AC50,[19],5.11 µM (active)
same,AC50,[20],2.52 µM (active)
same,AC50,[21],3.53 µM (active)
same,AC50,[22],0.585 µM (active)
Sc1[nH]cnc2c3ccccc3nc1-2,IC50,[8],> 100 µM (inactive)
same,IC50,[23],> 20 µM (inactive)
same,IC50,[9],3.65 µM (active)
same,IC50,[24],1.5 µM (active)
same,IC50,[25],> 138 µM (inactive)
Cc1ccccc1N(C(=O)c1snc(C(N)=O)c1N)C(C(=O)NC1CCCC1)c1ccco1 (stereo not given),EC50,[2],2.99 µM (active)
COc1ccc(/C(C)=N/NC(=O)CNC(=O)/C=C\c2ccco2)cc1,IC50,[26],6.67 µM (active)
CCCCN(CC)CCNC(=O)c1cc2c(C)nc3ccccc3c2o1,EC50,[3],0.944 µM (active)
Cc1cc(-c2nnc(S)n2/N=C/c2cccc(O)c2)[nH]n1,IC50,[8],> 100 µM (inactive)
same,IC50,[9],2.51 µM (active)
same,IC50,[27],157 µM (active)
